Measured values as given in patent US20250002475A1 (EPICS THERAPEUTICS, priority 2023, published 2025).

Columns and labels:
Kasumi-1 cells = experiment: Kasumi-1 cellular viability assay (ATP-Lite, 72 h); assay type: cell-based; settings: Homo sapiens, ATP-Lite luminescence, % viability relative to DMSO
Protocol: Kasumi-1 cell line was purchased from ATCC (ATCC® CRL2724™). Cells were isolated from the peripheral blood of a child with acute myeloid leukemia (AML FAB M2) (in 2nd relapse after bone marrow transplantation) in 1989. Most cells are round. Kasumi-1 cells are observed to grow individually or in small clumps in suspension.
Kasumi-1 cells are cultured in RPMI-1640 (Gibco A10491-01) containing 10% heat-inactivated and 0.22 μm filtered FBS (Gibco 10270-106) at a density of 3E+5 and 3E+6 viable cell/mL following the certificate of analysis.
(§1) Cellular viability assay: Kasumi-1 cells were plated (50 μL) in 96-well cell culture microplates (PS, F-Bottom black, Cellstar, Greiner 655086) at final concentration of 15000 cells/well. The compounds of the invention were dissolved in DMSO, and a titration curve was generated at 1000× final concentration. Compounds were then diluted 500× in tissue culture medium (RPMI-1640, 10% FBS). Then 50 μl of test compound were added to Kasumi-1 cells in a final DMSO concentration of 0.1%, final volume 100 μl. A gas permeable sealing membrane was applied to the plate to prevent evaporation (Breathe-Easy sealing membrane, Sigma Z380059-1PK) and cells were incubated for 72 h at 37° C., 5% CO2, 80% RH. After 72h of treatment, the plates were taken out of the incubator and left for a few minutes at room temperature. 100 μl of the reconstituted reagent ATP-Lite One Step (Perkin Elmer, 6016739) was added to each well. The plates were shaken for 2 min at 700 rpm and placed in the dark for 10 minutes at room temperature before measurement of luminescence intensity with Envision instrument. The raw data were expressed in RLU. Results were expressed in % of viability relative to DMSO control and an IC50 was calculated based on the concentration-response profile of individual compounds.

[1] = target: T1, recombinant METTL3/METTL14 complex (Homo sapiens, UniProt Q86U44); experiment: METTL3/14 Scintillation Proximity Assay (SPA), RNA methyltransferase activity; assay type: biochemical; settings: 5.31 nM METTL3/14 complex, 250 nM RNA substrate, 1 μM 3H-SAM, 90 min; for compounds marked * best of the two separated forms
T1 construct: purchased Active Motif 311970; host or cells: Sf9 cells

Caov-3 cells = experiment: Caov-3 cellular viability assay (ATP-Lite, 72 h); assay type: cell-based; settings: Homo sapiens, ATP-Lite luminescence, % viability relative to DMSO
Protocol: Caov-3 cell line was purchased from ATCC (ATCC® HTB-75™). Cells were isolated from the ovary of a ovarian cancer patient.
Caov-3 cells are cultured in DMEM (ATCC 30-2002) containing 10% heat-inactivated and 0.22 μm filtered FBS (Gibco 10270-106). The cells are seeded at 2.5E+4cell/cm^2 within the recommended subcultivation ratio of 1:3 to 1:6, as stated on the certificate of analysis issues by the provider of the cells.
as §1, with “assay: Caov-3” for “assay: Kasumi-1”, “of 10000” for “of 15000”, “to Caov-3” for “to Kasumi-1”, “After 72 h” for “After 72h”, “6016739) were” for “6016739) was”

T1 sequence (Q86U44 whole entry): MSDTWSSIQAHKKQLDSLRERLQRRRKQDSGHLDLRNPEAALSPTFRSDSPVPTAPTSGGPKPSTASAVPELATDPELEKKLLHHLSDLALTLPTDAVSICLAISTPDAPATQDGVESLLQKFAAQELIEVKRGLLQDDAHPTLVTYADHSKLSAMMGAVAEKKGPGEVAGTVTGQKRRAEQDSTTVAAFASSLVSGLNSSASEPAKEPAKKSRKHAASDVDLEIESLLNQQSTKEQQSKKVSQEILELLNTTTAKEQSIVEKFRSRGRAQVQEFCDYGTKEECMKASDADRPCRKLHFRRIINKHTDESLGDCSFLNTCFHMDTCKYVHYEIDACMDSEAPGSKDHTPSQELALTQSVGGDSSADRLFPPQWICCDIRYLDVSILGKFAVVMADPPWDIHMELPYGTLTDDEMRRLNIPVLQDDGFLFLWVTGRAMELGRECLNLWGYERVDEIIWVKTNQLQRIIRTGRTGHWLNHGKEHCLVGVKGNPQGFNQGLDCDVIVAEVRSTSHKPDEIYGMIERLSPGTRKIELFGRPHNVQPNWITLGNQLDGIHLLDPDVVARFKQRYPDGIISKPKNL
T1 sequence (Q9HCE5 whole entry partner): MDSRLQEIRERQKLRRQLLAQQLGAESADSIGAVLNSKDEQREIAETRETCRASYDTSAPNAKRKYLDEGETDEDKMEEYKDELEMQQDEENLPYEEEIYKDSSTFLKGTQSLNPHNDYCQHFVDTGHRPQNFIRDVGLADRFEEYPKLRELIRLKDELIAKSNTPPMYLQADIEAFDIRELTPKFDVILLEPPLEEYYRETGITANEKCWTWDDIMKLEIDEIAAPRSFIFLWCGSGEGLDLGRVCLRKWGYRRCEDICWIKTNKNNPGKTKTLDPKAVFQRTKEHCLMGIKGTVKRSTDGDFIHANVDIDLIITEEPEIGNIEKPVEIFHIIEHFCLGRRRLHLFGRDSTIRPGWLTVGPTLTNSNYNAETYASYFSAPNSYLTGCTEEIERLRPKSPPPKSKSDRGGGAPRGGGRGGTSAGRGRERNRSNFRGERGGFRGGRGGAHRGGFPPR

IC50 [1] [nM]	SMILES	IC50 (Kasumi-1 cells) [nM]	IC50 (Caov-3 cells) [nM]
≤ 50	CCC(c1ccc(N2CCC[C@@H](NCC3CCC3)C2)nn1)n1cc(-c2cncc(OC)c2)nn1 (single isomer, unassigned) [Compound 085]	> 5000	500 to 5000
≤ 50	CC(n1cc(-c2cc(=O)n3ccccc3n2)nn1)n1ccc(N2CCC[C@@H](NCC3CCC3)C2)cc1=O (single isomer, unassigned) [Compound 088]	500 to 5000	500 to 5000
≤ 50	CC(n1cc(-c2cccn3cncc23)nn1)n1ccc(N2CCC[C@@H](NCC3CCC3)C2)cc1=O (single isomer, unassigned) [Compound 124]	> 5000	500 to 5000
≤ 50	COc1cncc(-c2ncn(C(C)n3ccc(N4CCC[C@@H](NCC5CCC5)C4)cc3=O)n2)c1 (single isomer, unassigned) [Compound 135]	500 to 5000	500 to 5000
≤ 50	COc1cncc(-c2cn(C(C)c3ccc(N4CCC[C@@H](NCC5CCC5)C4)nc3F)nn2)c1 (single isomer, unassigned) [Compound 138]	500 to 5000	500 to 5000
≤ 50	CC(n1cc(-c2cncc(N(C)C)c2)nn1)n1ccc(N2CCC[C@@H](NCC3CC3)C2)cc1=O (single isomer, unassigned) [Compound 142]	≤ 500	≤ 500
≤ 50	CC(c1ccc(N2CCC[C@@H](NCC3CCC3)C2)cn1)n1cc(-c2cncc(N(C)C)c2)nn1 (single isomer, unassigned) [Compound 143]	≤ 500	≤ 500
≤ 50	CCN(C)c1cncc(-c2cn(C(C)n3ccc(N4CCC[C@@H](NCC5CCC5)C4)cc3=O)nn2)c1 (single isomer, unassigned) [Compound 151]	≤ 500	≤ 500
≤ 50	CC(n1cc(-c2cncc(N3CCN(C)C3=O)c2)nn1)n1ccc(N2CCC[C@@H](NCC3CCC3)C2)cc1=O (single isomer, unassigned) [Compound 153]	> 5000	> 5000
≤ 50	CC(n1cc(-c2cncc(N(C)CC(F)(F)F)c2)nn1)n1ccc(N2CCC[C@@H](NCC3CCC3)C2)cc1=O (single isomer, unassigned) [Compound 154]	≤ 500	≤ 500
≤ 50	CC(C)Nc1cncc(-c2cn(C(C)n3ccc(N4CCC[C@@H](NCC5CCC5)C4)cc3=O)nn2)c1 (single isomer, unassigned) [Compound 158]	≤ 500	≤ 500
≤ 50	CC(n1cc(-c2cncc(N3CCCC3=O)c2)nn1)n1ccc(N2CCC[C@@H](NCC3CCC3)C2)cc1=O (single isomer, unassigned) [Compound 159]	500 to 5000	500 to 5000
≤ 50	CC(n1cc(-c2cncc(N3CCCC3)c2)nn1)n1ccc(N2CCC[C@@H](NCC3CCC3)C2)cc1=O (single isomer, unassigned) [Compound 160]	≤ 500	≤ 500
≤ 50	CC(n1cc(-c2cncc(N3CCC3)c2)nn1)n1ccc(N2CCC[C@@H](NCC3CCC3)C2)cc1=O (single isomer, unassigned) [Compound 161]	≤ 500	≤ 500
≤ 50	CC(n1cnc(-c2cncc(N(C)C)c2)c1)n1ccc(N2CCC[C@@H](NCC3CCC3)C2)cc1=O (single isomer, unassigned) [Compound 166]	≤ 500	≤ 500
≤ 50	CC(n1cc(-c2cncc(N3CCN(C)CC3)c2)nn1)n1ccc(N2CCC[C@@H](NCC3CCC3)C2)cc1=O (single isomer, unassigned) [Compound 168]	500 to 5000	≤ 500
≤ 50	CC(c1ccc(N2CCC[C@@H](NCC3CCC3)C2)cn1)c1cnc(-c2cncc(N(C)C)c2)s1 (single isomer, unassigned) [Compound 169]	≤ 500	≤ 500
